Earlier results in patent publication US10596159B2, “Method and composition for treating cachexia and eating disorders” (India Globalization Capital, Inc., priority 2015, dated 2020).
Where two headings read alike, the source gives them in different places.

Columns and labels:
[1] = HIV-positive and cancer patients; Gorter, 1999
[2] = advanced cancer patients, Ronga, et al. 2014

Compound | appetite [1] | body weight [1] | appetite stimulation (Suzuki, et al. 2013) | effect on weight loss (Suzuki, et al. 2013) | appetite stimulation [2] | effect on progressive weight loss [2]
CCCCCc1cc(O)c2c(c1)OC(C)(C)[C@@H]1CCC(C)=C[C@@H]21 [THC, Delta-9-tetrahydrocannabinol] | stimulation of appetite | increase of body weight | – | – | – | –
CN1CCC(=C2c3ccccc3C=Cc3ccccc32)CC1.Cl [cyproheptadine, 4-(5H-dibenzo [a,d]cyclohepten-5-ylidene)-1-methylpiperidine hydrochloride] | – | – | effective in stimulating appetite | only slight effects on weight loss | only mildly stimulated appetite | did not prevent progressive weight loss
